Activity calls are given as the source filed them. The calls are words filed in the database; no cut-off is given here.
Experiments:
[1] = test system: Rattus norvegicus; assay: Hypotensive activity in anaesthetized normotensive Wistar rat assessed as reduction in epinephrine-induced pressor response at 1 mg/kg, iv after 5 mins; format: functional, organism-based; set-up: dose 1 mg/kg
[2] = test system: Rattus norvegicus; assay: Effect on electrocardiogram in anaesthetized Wistar rat assessed as change in Q-T interval at 1 mg/kg, iv after 15 mins by electrocardiography; format: functional
[3] = test system: Rattus norvegicus; assay: Effect on electrocardiogram in anaesthetized Wistar rat assessed as change in Q-T interval at 1 mg/kg, iv after 5 mins by electrocardiography; format: functional
[4] = test system: Rattus norvegicus; assay: Antiarrhythmic activity against adrenaline-induced arrhythmia in po dosed anaesthetized Wistar rat assessed as inhibition of premature ventricular beats pretreated 60 mins prior to adrenaline challenge; format: functional; details: Heart
[5] = test system: Rattus norvegicus; assay: Hypotensive activity in po dosed anaesthetized normotensive Wistar rat assessed as decrease in systolic pressure administered as single dose after 5 mins; format: functional, organism-based
[6] = test system: Rattus norvegicus; assay: Effect on electrocardiogram in anaesthetized Wistar rat assessed as change in P-Q-interval at 1 mg/kg, iv after 15 mins by electrocardiography; format: functional
[7] = Decrease in amplitude of contraction in rabbit intestine at 10 uM after 5 mins; format: functional, Oryctolagus cuniculus; set-up: scale not given: the % may be the effect or the level left
[8] = test system: Rattus norvegicus; assay: Effect on heart rate in anaesthetized Wistar rat assessed as number of beats per minute at 1 mg/kg, iv after 15 mins by electrocardiography; format: functional
[9] = biological target: T1, Adrenergic receptor alpha-1 (Rattus norvegicus, UniProt P15823+P23944+P43140); assay: Displacement of [3H]prazosin from alpha1 adrenergic receptor in rat cerebral cortex by liquid scintillation method; format: tissue-based
T1 sequence (P15823 whole entry): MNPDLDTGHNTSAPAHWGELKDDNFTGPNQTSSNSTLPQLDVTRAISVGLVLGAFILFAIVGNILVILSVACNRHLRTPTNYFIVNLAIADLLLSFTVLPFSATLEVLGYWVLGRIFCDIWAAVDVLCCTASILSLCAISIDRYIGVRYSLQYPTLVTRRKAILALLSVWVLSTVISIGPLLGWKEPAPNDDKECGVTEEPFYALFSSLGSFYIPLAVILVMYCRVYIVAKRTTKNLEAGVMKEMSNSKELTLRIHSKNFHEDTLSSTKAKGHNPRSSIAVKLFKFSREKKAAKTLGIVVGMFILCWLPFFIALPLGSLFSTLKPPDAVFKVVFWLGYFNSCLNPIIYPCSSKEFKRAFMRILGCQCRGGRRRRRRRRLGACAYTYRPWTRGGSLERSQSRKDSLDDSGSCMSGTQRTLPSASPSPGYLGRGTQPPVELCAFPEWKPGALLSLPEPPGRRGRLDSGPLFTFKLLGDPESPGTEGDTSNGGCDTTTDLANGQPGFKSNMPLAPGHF
T1 sequence (P23944 whole entry): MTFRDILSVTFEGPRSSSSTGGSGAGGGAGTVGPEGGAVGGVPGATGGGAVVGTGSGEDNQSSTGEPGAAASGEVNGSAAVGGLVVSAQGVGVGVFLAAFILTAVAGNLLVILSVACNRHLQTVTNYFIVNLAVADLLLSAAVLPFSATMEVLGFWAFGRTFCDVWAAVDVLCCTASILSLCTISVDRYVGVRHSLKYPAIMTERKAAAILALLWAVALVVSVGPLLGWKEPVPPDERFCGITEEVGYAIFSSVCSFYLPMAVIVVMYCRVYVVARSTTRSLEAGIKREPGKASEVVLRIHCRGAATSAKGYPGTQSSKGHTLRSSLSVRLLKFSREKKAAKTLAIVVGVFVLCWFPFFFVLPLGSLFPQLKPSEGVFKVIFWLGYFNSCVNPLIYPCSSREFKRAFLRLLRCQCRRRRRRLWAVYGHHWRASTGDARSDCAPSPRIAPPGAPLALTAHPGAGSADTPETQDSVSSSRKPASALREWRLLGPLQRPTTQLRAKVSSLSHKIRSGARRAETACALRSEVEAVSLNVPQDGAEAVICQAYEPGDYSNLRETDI
T1 sequence (P43140 whole entry): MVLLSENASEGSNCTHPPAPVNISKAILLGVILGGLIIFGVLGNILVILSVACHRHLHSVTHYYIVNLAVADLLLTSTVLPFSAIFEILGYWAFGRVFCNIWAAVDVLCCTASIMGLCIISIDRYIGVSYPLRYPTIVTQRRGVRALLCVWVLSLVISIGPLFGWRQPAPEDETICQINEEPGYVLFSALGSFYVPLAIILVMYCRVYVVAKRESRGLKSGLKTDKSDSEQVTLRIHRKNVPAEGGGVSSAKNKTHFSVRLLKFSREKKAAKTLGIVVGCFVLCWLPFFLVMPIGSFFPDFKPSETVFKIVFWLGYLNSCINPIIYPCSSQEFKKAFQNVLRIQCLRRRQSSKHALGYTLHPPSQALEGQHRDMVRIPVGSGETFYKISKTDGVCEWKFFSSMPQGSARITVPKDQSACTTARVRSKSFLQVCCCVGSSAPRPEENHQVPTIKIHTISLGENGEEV

[10] = test system: Rattus norvegicus; assay: Effect on electrocardiogram in anaesthetized Wistar rat assessed as change in QRS interval at 1 mg/kg, iv after 1 min by electrocardiography; format: functional
[11] = test system: Rattus norvegicus; assay: Hypotensive activity in po dosed anaesthetized normotensive Wistar rat assessed as decrease in diastolic pressure administered as single dose after 5 mins; format: functional, organism-based
[12] = test system: Rattus norvegicus; assay: Hypotensive activity in anaesthetized normotensive Wistar rat assessed as decrease in systolic pressure at 0.125 to 1 mg/kg, po administered as single dose after 5 mins; format: functional, organism-based
[13] = test system: Rattus norvegicus; assay: Hypotensive activity in anaesthetized normotensive Wistar rat assessed as decrease in diastolic pressure at 0.25 to 1 mg/kg, iv administered as single dose after 5 mins; format: functional; set-up: scale not given: the % may be the effect or the level left; details: dose mg/kg 0.25-1
[14] = test system: Rattus norvegicus; assay: Hypotensive activity in anaesthetized normotensive Wistar rat assessed as decrease in diastolic pressure at 0.125 to 1 mg/kg, po administered as single dose after 5 mins; format: functional, organism-based
[15] = Increase in frequency of contraction in rabbit intestine at 1 nM after 5 mins; format: functional, Oryctolagus cuniculus
[16] = test system: Rattus norvegicus; assay: Hypotensive activity in anaesthetized normotensive Wistar rat assessed as reduction in norepinephrine induced pressor response at 1 mg/kg, iv after 5 mins; format: functional, organism-based; set-up: dose 1 mg/kg
[17] = test system: Rattus norvegicus; assay: Hypotensive activity in anaesthetized normotensive Wistar rat assessed as decrease in diastolic pressure at 0.125 to 1 mg/kg, iv administered as single dose after 5 mins; format: functional; set-up: scale not given: the % may be the effect or the level left; details: dose mg/kg 0.125-1
[18] = test system: Rattus norvegicus; assay: Hypotensive activity in anaesthetized normotensive Wistar rat assessed as decrease in systolic pressure at 0.625 mg/kg, iv administered as single dose after 5 mins; format: functional; set-up: scale not given: the % may be the effect or the level left
[19] = test system: Rattus norvegicus; assay: Hypotensive activity in anaesthetized normotensive Wistar rat assessed as decrease in diastolic pressure at 0.625 mg/kg, iv administered as single dose after 5 mins; format: functional; set-up: scale not given: the % may be the effect or the level left
[20] = test system: Rattus norvegicus; assay: Hypotensive activity in anaesthetized normotensive Wistar rat assessed as decrease in diastolic pressure at 0.625 mg/kg, po administered as single dose after 5 mins; format: functional, organism-based; set-up: dose 0.625 mg/kg
[21] = test system: Rattus norvegicus; assay: Hypotensive activity in anaesthetized normotensive Wistar rat assessed as decrease in systolic pressure at 0.125 to 1 mg/kg, iv administered as single dose after 5 mins; format: functional; set-up: scale not given: the % may be the effect or the level left; details: dose mg/kg 0.125-1
[22] = test system: Rattus norvegicus; assay: Hypotensive activity in anaesthetized normotensive Wistar rat assessed as decrease in systolic pressure at 0.625 mg/kg, po administered as single dose after 5 mins; format: functional, organism-based; set-up: dose 0.625 mg/kg

For `COc1ccccc1OCCNC[C@@H](O)COc1cccc2[nH]ccc12`, the Activity [1] was “Active”, the Activity [2] was 62.8 ms and the Activity [3] was 66 ms. For the same compound, the ED50 [4] was 1.28 mg/kg, the Activity [5] was “inactive” and the Activity [6] was 51.7 ms. The Activity [7] was 31%, the Activity [8] was 298 min⁻¹ and the Ki [9] was 88.3 nM. The Activity [10] was 22.3 ms and the Activity [11] was “inactive”.
For `COc1ccccc1OCCNCC(O)COc1cccc2[nH]ccc12` (racemic), the Activity [1] was “Active”, the Activity [2] was 72.8 ms and the Activity [3] was 69 ms. The Activity [12] was “Active”, the ED50 [4] was 0.44 mg/kg and the Activity [13] was 10%. The Activity [14] was “Active”, the Activity [6] was 46.2 ms and the Activity [7] was 29%. The Activity [15] was 8%, the Activity [8] was 287.3 min⁻¹ and the Ki [9] was 89.8 nM. For the same compound, the Activity [10] was 28.4 ms and the Activity [16] was “Active”.
For `COc1ccccc1OCCNC[C@H](O)COc1cccc2[nH]ccc12`, the Activity [1] was “Active”, the Activity [2] was 72 ms and the Activity [17] was 14%. It also gave an Activity [3] of 76.3 ms, an ED50 [4] of 0.61 mg/kg and an Activity [18] of 8%. The Activity [19] was 8%, the Activity [20] was “Active” and the Activity [6] was 48 ms. For the same compound, the Activity [21] was 15%, the Activity [8] was 304.2 min⁻¹ and the Activity [22] was “Active”. For the same compound, the Ki [9] was 56.7 nM, the Activity [10] was 24.3 ms and the Activity [16] was “Active”.
